According to patent US20060241175A1, “Vehicle for topical delivery of anti-inflammatory compounds” (priority 2002, published 2006):
Converted amounts (≈) assume the structure as drawn. Like-named read-outs stand apart in the source and are kept apart here.

Legend:
[1] = physchem; settings: organic solvent or mixture, thermodynamic from solid
[2] = in olive or corn oil; cited from earlier work

SMILES | solubility ([1]; solubility) [mg/mL] | solubility [2] | solubility ([1]; maximum solubility) [mg/mL]
CN1C(C(=O)Nc2ccccn2)=C(O)c2ccccc2S1(=O)=O [Piroxicam] | 2.9 to 3.2 (≈ 8.75 to 9.66 mM) | below 0.05% | 
COc1ccc2c(c1)c(CC(=O)O)c(C)n2C(=O)c1ccc(Cl)cc1 [Indomethacin] |  | below 0.2% | 160 (≈ 447 mM)
